Assay results reported in US6369034B1, “Functionalized alkyl and alenyl side chain derivatives of glycinamides as farnesyl transferase inhibitors” (Warner-Lambert Company, priority 1998, dated 2002).
Where two headings read alike, the source gives them in different places.

What was measured:
[1] = test system: mammary and salivary carcinomas; settings: daily administration; ras transgenic mice; cited from earlier work
[2] = target: T1, SF9 affinity purified rat FPT (Rattus norvegicus, UniProt Q02293+Q04631); test: PFT inhibitory activity; type: biochemical; settings: average of two tests
T1 construct: made in house; host or cells: Sf9 insect cells
Protocol: The protein:farnesyl transferase (PFT) or farnesyl protein transferase (FPT) inhibitory activity of compounds of the present invention were assayed in HEPES buffer (pH 7.4) containing 5 mM potassium phosphate and 20 μM ZnCl2. The solution also contained 5 mM DTT (dithiothreitol), 5 mM MgCl2, and 0.1% PEG 8000. Assays were performed in 96 well plates (Wallec) and employed solutions composed of varying concentrations of a compound of the present invention in 10% DMSO (dimethylsulfoxide). Upon addition of both substrates, radiolabeled farnesyl pyrophosphate ([1^3H], specific activity 15-30 Ci/mmol, final concentration 134 nM) and (biotinyl)-Ahe-Thr-Lys-Cys-Val-Ile-Met ([3aS[3a alpha, 4 beta, 6a alpha]-hexahydro-2-oxo-1H-thieno[3,4-d]imidazole-5-pentanoic acid]-[7-aminoheptanoic acid]-Thr-Lys-Cys-Val-Ile-Met) (Ahe is 7-aminoheptanoic acid, Thr is threonine, Lys is lysine, Cys is cysteine, Val is valine, Ile is isoleucine, and Met is methionine) (final concentration 0.2 4μM), the enzyme reaction was started by addition of SF9 affinity purified rat FPT. After incubation at 30° C. for 30 minutes, the reaction was terminated by diluting the reaction 2.5-fold with a stop buffer containing 1.5 M magnesium acetate, 0.2 M H3PO4, 0.5% BSA (bovine serum albumin), and strepavidin beads (Amersham) at a concentration of 1.3 mg/mL. After allowing the plate to settle for 30 minutes at room temperature, radioactivity was quantitated on a microBeta counter (Model 1450, Wallec). The assay was also carried out without 5 mM potassium phosphate.

[3] = test system: Ras protein in ras-transformed cells; test: Gel Shift Assay; type: cell-based; settings: 18-hour incubation, read-out: Gel Shift (μM) MED
Protocol: Twenty-four hours after planting 2×10^6 ras-transformned cells per treatment condition, the farnesylation inhibitor is added at varying concentrations. Following an 18-hour incubation period, cells are lysed in phosphate-buffered saline containing 1% Triton X-100, 0.5% sodium deoxycholate, and 0.1% SDS (sodium dodecyl sulfate), pH 7.4 in the presence of several protease inhibitors (PMSF (phenylmethylsulfonylfluoride), antipain, leupeptin, pepstatin A, and aprotinin all at 1 μg/mL). Ras protein is immunoprecipitated from the supernatants by the addition of 3 μg v-H-ras Ab-2 (Y13-259 antibody from Oncogene Science). After overnight immunoprecipitation, 30 μL of a 50% protein G-Sepharose slurry (Pharmacia) is added followed by 45-minute incubation. Pellets are resuspended in 2×tris-glycine loading buffer (Novex) containing 5% mercaptoethanol and then denatured by 5 minutes boiling prior to electrophoresis on 14% Tris-glycine SDS gels. Using Western transfer techniques, proteins are transferred to nitrocellulose membranes followed by blocking in blocking buffer. Upon overnight incubation with primary antibody (pan-ras Ab-2 from Oncogene Science), an antimouse HRP (horse radish peroxidase) conjugate secondary antibody (Amersham) is employed for detection of the ras protein. Blots are developed using ECL(enhanced chemiluminescence) techniques (Amersham).

[4] = test system: human lung carcinoma with K-ras mutation and p53 deletion; settings: nude mice; cited from earlier work
[5] = HEPES buffer pH 7.4, without 5 mM potassium phosphate, read-out: IC50 (μM) Hepes
[6] = HEPES buffer pH 7.4 containing 5 mM potassium phosphate, read-out: IC50 (μM) Hepes/5 mM KPO4^−2

## CC[C@H](C)[C@@H](CO[C@@H](Cc1ccccc1)C(=O)N[C@@H](CCS(C)(=O)=O)C(=O)OC(C)C)NC[C@@H](N)CS [L-744,832]
[1]
  tumor regression: caused tumor regression

## CC(OC(=O)NC(Cc1c[nH]cn1)C(=O)N(CC(=O)NCC(C)(C)c1ccccc1)Cc1ccc(OCc2ccccc2)cc1)c1ccccc1 (centres unmarked) [Example 10, [1-{(4-Benzyloxy-benzyl)-[(2-methyl-2-phenyl-propylcarbamoyl)-methyl]-carbamoyl}-2-(1H-imidazol-4-yl)-ethyl]-carbamic acid 1-phenyl-ethyl ester]
[2]; [5]
  IC50: 0.25 µM
[2]; [6]
  IC50: 0.004 µM
[3]
  minimal effective concentration: 0.01 µM

## CNCCN(CC(=O)NCC(C)(C)c1ccccc1)C(=O)[C@H](Cc1c[nH]cn1)NC(=O)OCc1ccccc1 [Example 7, Benzyl N-[(1S)-1-(1H-4-imidazolylmethyl)-2-([2-(methylamino)ethyl]-2-[(2-methyl-2-phenylpropyl)amino]-2-oxoethylamino)-2-oxoethyl]carbamate]
[2]; [5]
  IC50: > 30 µM
[2]; [6]
  IC50: 0.92 µM

## C/C=C/CN(CC(=O)NCC(C)(C)c1ccccc1)C(=O)[C@H](Cc1c[nH]cn1)NC(=O)OCc1ccccc1 [Example 9, Benzyl N-[2-((E)-2-butenyl-2-[(2-methyl-2-phenylpropyl)amino]-2-oxoethylamino)-1-(1H-4-imidazolylmethyl1)-2-oxoethyl]carbamate]
[2]; [5]
  IC50: 1.4 µM
[2]; [6]
  IC50: 0.011 µM
[3]
  minimal effective concentration: 0.01 µM

## CC(C)OC(=O)CCN(CC(=O)NCC(C)(C)c1ccccc1)C(=O)[C@H](Cc1c[nH]cn1)NC(=O)OCc1ccccc1 [Example 12, 3-{[2-Benzyloxycarbonylamino-3-(3H-imidazol-4-yl)-propionyl]-[(2-methyl-2-phenyl-prolylcarbamoyl)-methyl]-amino}-propionic acid isopropyl ester]
[2]; [5]
  IC50: 2.2 µM
[2]; [6]
  IC50: 0.034 µM

## CN(C)C(=O)CCN(CC(=O)NCC(C)(C)c1ccccc1)C(=O)C(Cc1cnc[nH]1)NC(=O)OCc1ccccc1 (centres unmarked) [Example 13, [1-{(2-Dimethylcarbamoyl-ethyl)-[(2-methyl-2-phenyl-propylcarbamoyl)-methyl]-carbamoyl}-2-(3H-imidazol-4-yl)ethyl]-carbamic acid benzyl ester]
[2]; [5]
  IC50: 4 µM
[2]; [6]
  IC50: 0.007 µM

## C[C@H](c1ccccc1)N(CC(=O)NCC(C)(C)c1ccccc1)C(=O)[C@H](Cc1c[nH]cn1)NC(=O)OCc1ccccc1 [Example 2, Benzyl N-((1S)-1-(1H-4-imidazolylmethyl)-2-2-[(2-methyl-2-phenylpropyl)amino]-2-oxoethyl[(1R)-1-phenylethyl]amino-2-oxoethyl)carbamate]
[2]; [5]
  IC50: 8.3 µM
[2]; [6]
  IC50: 0.065 µM
[3]
  minimal effective concentration: 1 µM

## COC(=O)CCN(CC(=O)NCC(C)(C)c1ccccc1)C(=O)[C@H](Cc1c[nH]cn1)NC(=O)OCc1ccccc1 [Example 4, Methyl 3-([(2S)-2-[(benzyloxy)carbonyl]amino-3-(1H-4-imidazolyl)propanoyl]-2-[(2-methyl-2-phenylpropyl)amino]-2-oxoethylamino)propanoate]
[2]; [5]
  IC50: 5 µM
[2]; [6]
  IC50: 0.018 µM
[3]
  minimal effective concentration: 0.1 µM

## CC(C)(CNC(=O)CN(CCC(=O)O)C(=O)[C@H](Cc1c[nH]cn1)NC(=O)OCc1ccccc1)c1ccccc1 [Example 5, 3-([(2S)-2-[(Benzyloxy)carbonyl]amino-3-(1H-4-imidazolyl)propanoyl]-2-[(2-methyl-2-phenylpropyl)amino]-2-oxoethylamino)propanoic acid]
[2]; [5]
  IC50: 2.3 µM
[2]; [6]
  IC50: < 0.001 µM
[3]
  minimal effective concentration: 1 µM

## COCCN(CC(=O)NCC(C)(C)c1ccccc1)C(=O)C(Cc1cnc[nH]1)NC(=O)OCc1ccccc1 (centres unmarked) [Example 8, (2-(3H-Imidazol-4-yl)-1-{(2-methoxy-ethyl)-[(2-methyl-2-phenyl-propylcarbamoyl)-methyl]-carbamoyl}-ethyl)-carbamic acid benzyl ester]
[2]; [5]
  IC50: 4.8 µM
[2]; [6]
  IC50: 0.019 µM
[3]
  minimal effective concentration: 0.2 µM

## CSCCN(CC(=O)NCC(C)(C)c1ccccc1)C(=O)C(Cc1cnc[nH]1)NC(=O)OCc1ccccc1 (centres unmarked) [Example 14, {2-(3H-Imidazol-4-yl)-1-[[(2-methyl-2-phenyl-propylcarbamoyl)-methyl]-(2-methylsulfanyl-ethyl)-carbamoyl]-ethyl}-carbamic acid benzyl ester]
[2]; [5]
  IC50: 1.2 µM
[2]; [6]
  IC50: 0.006 µM
[3]
  minimal effective concentration: 0.05 µM

## CC(C)(CNC(=O)CN(CCN1CCOCC1)C(=O)[C@H](Cc1c[nH]cn1)NC(=O)OCc1ccccc1)c1ccccc1 [Example 11, Benzyl N-(1S)-1-(1H-4-imidazolylmethyl)-2-[2-[(2-methyl-2-phenylpropyl)amino]-2-oxoethyl(2-morpholinoethyl)amino]-2-oxoethylcarbamate]
[2]; [5]
  IC50: 2.1 µM
[2]; [6]
  IC50: 0.016 µM
[3]
  minimal effective concentration: 0.2 µM

## CC(C)(CNC(=O)CN(CC(C)(C)c1ccccc1)C(=O)[C@H](Cc1c[nH]cn1)NC(=O)OCc1ccccc1)c1ccccc1 [Example 3, Benzyl N-[(1S)-1-(1H-4-imidazolylmethyl)-2-((2-methyl-2-phenylpropyl)2-[(2-methyl-2-phenylpropyl)amino]-2-oxoethylamino)-2-oxoethyl]carbamate]
[2]; [5]
  IC50: 0.098 µM
[2]; [6]
  IC50: 0.001 µM
[3]
  minimal effective concentration: 0.01 µM

## CSCC[C@H](NC(=O)c1ccc(NC[C@@H](N)CS)cc1-c1ccccc1)C(=O)O [FT1276]
[4]
  tumor growth: selectively block tumor growth

## CC(C)(CNC(=O)CN(CCN)C(=O)C(Cc1cnc[nH]1)NC(=O)OCc1ccccc1)c1ccccc1 (centres unmarked) [Example 6, [1-{(2-Amino-ethyl)-[(2-methyl-2-phenyl-propylcarbamoyl)-methyl]-carbamoyl}-2-(3H-imidazol-4-yl)-ethyl]-carbamic acid benzyl ester]
[2]; [5]
  IC50: 36 µM
[2]; [6]
  IC50: 0.072 µM
[3]
  minimal effective concentration: > 1 µM

## C[C@@H](c1ccccc1)N(CC(=O)NCC(C)(C)c1ccccc1)C(=O)[C@H](Cc1c[nH]cn1)NC(=O)OCc1ccccc1 [Example 1, Benzyl N-((1S)-1-(1H-4-imidazolylmethyl)-2-2-[(2-methyl-2-phenylpropyl)amino]-2-oxoethyl[(1S)-1-phenylethyl]amino-2-oxoethyl)carbamate]
[2]; [5]
  IC50: 0.57 µM
[2]; [6]
  IC50: 0.001 µM
[3]
  minimal effective concentration: 0.01 µM
